Assay results reported in US8097656B2, “Nitrogenated trans-stilbene analogs, method for the obtention and medical applications thereof” (Dominion Pharmakine S.L, priority 2005, dated 2012).
Entries after “also recorded” stand apart in the source; their conditions may differ.

Experiments:
MB16 cells [1] = test: MB16 cell adhesion to immobilized VCAM-1 substrates (H2O2-treated); type: cell-based, murine; conditions: 2.5 μM preincubation; 10 μM H2O2
Experimental: MB16 and MA375 cell adhesion to immobilized VCAM-1 substrates. The MB16 and MA375 cell adhesion tests were conducted on immobilized VCAM-1 substrates (2 μg/ml of recombinant human VCAM-1, R&D Systems, Minneapolis, Minn.) on 96-well plates. To avoid non-specific attachment to the plastic, 0.5% BSA dissolved in PBS was added to the wells for 2 hours at ambient temperature prior to conducting the adhesion test. The melanoma cells were preincubated with 2.5 μM of the compounds to be tested (azaresveratrol, see Table 2; JE1:2, JE2:1 and JE2:2 see FIG. 2; JEM2:2-01 and JEM2:1-02 see FIG. 7; YEF02, YEF03, YEF07, YEF05B, YEF07B and YEF05H. see FIG. 9) for 30 minutes, to which 10 μM of hydrogen peroxide or 10 ng/ml of IL-18 were added, respectively for a further 24 hours. Afterward, the cells were washed and marked with the BCECF-AM fluorescent probe (carboxyfluorescein, 2′,7′-bis-(2-carboxy-ethyl)-5-(6)carboxyfluorescein aminoxymethyl ester). Thirty minutes later, a washing process was performed to remove the excess fluorochromium, the number of viable cells being calculated by means of the trypan blue exclusion test and (5×10^4 cells/well) being added to the 96-well plate. The co-culture plates were incubator-incubated at 37° C. for 1 hours. The percentage of cellular adhesion was calculated by measuring the fluorescence emitted by the adhered cells (obtained after washing the plate) with regard to the fluorescence emitted by the total number of cells added. The results in the figures are given in values related to the adhesion percentages of the untreated melanoma cells.

HSE cells [2] = test: MB16 cell adhesion to HSE cells treated with MC-MB16; type: cell-based, mouse; conditions: 2.5 μM prior to MC-MB16
Source text: (§1) Isolation of primary murine cultures of hepatic sinusoidal endothelial (HSE) cells. The hepatic sinusoidal cells were isolated from C57BL/6J mice (males, aged 6-8 weeks) supplied by IFFA Credo (L'Arbreole, France), followed by a purification and identification of the HSE cells following the protocol described by Vidal-Vanaclocha et al. (1993) [Vidal-Vanaclocha, F., Rocha, M., Asumendi, A. & Barbera-Guillem, E. Isolation and enrichment of two sublobular compartment-specific endothelial cell subpopulations from liver sinusoids. Hepatology, 1993, 18, 328-339]. Stable primary cultures of HSE cells were obtained after seeding the cells on a type I collagen substrate (Sigma Chemicals Co, St Louis, Mo.), and the cultures were maintained in DMEM-HCO^3−, penicillin (100 U/ml), streptomycin (100 μg/ml), supplemented with 10% fetal bovine serum at 37° C. with 5% CO2 in atmosphere at 98% humidity.
MB16 cell adhesion to the monolayer of HSE cells in culture. The endothelial cells were isolated 24 hours prior to the adhesion test and were seeded on 24-well plate, maintaining them a minimum of 4 hours in serum-free medium before incubating them with DMEM in the presence or not of MC-MB16 for 8 hours. The synthesized compounds (JE2:2 see FIG. 6; JEM2:2-01 and JEM2:1-02 see FIG. 8A; YEF02, YEF03, YEF07, YEF05B, YEF07B and YEF05H see FIG. 10) were added to a 2.5 μM concentration prior to the MC-MB16. On the other hand, the MB16 cells were marked with 40 μg/ml from the fluorescent probe BCECF-AM (carboxyfluorescein, 2′,7′-bis-(2-carboxy-ethyl)-5-(6)carboxyfluorescein aminoxymethyl ester) supplied by Molecular Probes Inc. (Oregon, USA). Afterward, a washing process was performed with DMEM-HCO3−—to remove the excess fluorochromium, the number of viable cells being calculated by means of the trypan blue exclusion test and resuspended to a concentration of 2×10^5 cells/ml. Lastly, 1 ml of the MB16 cell suspension was added to each well on the primary HSE cell culture plate. The co-culture plates were incubator-incubated at 37° C. for 8 minutes. The percentage of cellular adhesion was calculated by means of the a fluorescence measurement system described by Vidal-Vanaclocha et al. (1994) [Vidal-Vanaclocha, F., Amézaga, C., Asumendi, A., Kaplanski, G. & Dinarello, C. A. Interleukin-1 receptor blockade reduces the number and size of murine B16 melanoma hepatic metastases. Cancer Research, 1994, 54, 2667-2672]. In the experiments with IL-18, the MB16 cells were incubated with 10 ng/ml of IL-18 for 4 hours prior to being marked with BCECF-AM and were adhered to the HSE cell plate. The results in the figures are given as values related to the adhesion percentages of the untreated HSE cells.

PGE2 = test: EIA of PGE2 in supernatant of VEGF-treated HSE cells (evidence of cyclooxygenase-2 activity); type: cell-based, mouse; conditions: 1, 2.5 and 10 μM; 10 ng/ml VEGF for 4 hours
Experimental: PGE2 determination in HSE cell supernatants (see FIG. 11). Primary cultured HSE cells were incubated in the presence or absence of increasing concentrations (1, 2.5 and 10 μM) of the compounds JE2:2, YEF07 and YEF05B for 30 minutes. In following, 10 ng/ml of recombinant murine VEGF or the same volume of saline solution was added, 4 hours after which supernatants were collected and the PGE2 concentration determined by enzymatic immunoassay (EIA) supplied by Amersham Biosciences (Uppsala, Sweden).

MB16 cells [3] = test: In vitro proliferation of MB16 cells treated with recombinant IL-18; type: cell-based, murine; conditions: 2.5 μM pretreatment; 10 ng/ml IL-18; 48 h
Experimental: In vitro Melanoma cell proliferation test. The MB16 or MA375 cells are seeded (2500 cells/well/200 μl) in DMEM medium (Dulbecco's modified Eagle's medium) with 10% fetal bovine serum (FBS). Once adhered, they were washed to remove the FBS and fresh medium was added in the presence or absence of 2.5 μM of the compounds to be tested. In the experiments with MA375, the compound azaresveratrol (see Table 4) was used, and in the experiments with MB16 cells, the compounds azaresveratrol, JE1:2, JE2:1 or JE2:2 (see FIG. 3) were used. Thirty (30) minutes later, 10 ng/ml of IL-18 or HSC-conditioned media (murines in the case of B16 and human ones in the case of A375) were added to some wells, and the plates were incubated for 48 hours at 37° C. with 5% CO2 Upon completion of the incubation period, the cells were fixed with […] for 1 hours, were washed and were allowed to dry in the incubator at 50° C. for 30 minutes. In following, 100 μl/well of sulforhodamine 101 (0.4% p/v) was added and they were incubated at room temperature in the dark for 30 minutes. After washing, 200 μl/well of Tris base 10 mM pH 10.5 was added and the fluorescence was measured by means of a 530 nm, 620 nm emission excitation filter plate fluorescence reader. The number of cells was calculated by extrapolating said fluorescence data on a standard straight line previously obtained based on the fluorescence emitted in an increasing number of cells.

HSE cells [4] = test: Hydrogen peroxide production from primary cultured HSE cells (DCFH-DA probe); type: cell-based, mouse; conditions: 2.5 μM
Source text: as §1
(§2) Determination of hydrogen peroxide production from HSE and MB16 cells. Primary cultures of HSE cells were treated with 10 μg/ml of the DCFH-DA fluorescent probe for 30 minutes at 37° C. and were washed to eliminate the excess fluorochromium. Afterward, fresh culture medium was added thereto in the presence or absence of 2.5 μM of the compounds JE1:2, JE2:1 or JE2:2 and the production of H202 over the course of time was determined (see FIG. 5). The hydrogen peroxide produced by the cells oxidizes the probe, converting it into a fluorescent molecule. Thus, the cell fluorescence produced by the accumulation of DCF made it possible to detect the intracellular production of hydrogen peroxide. In each cell well, it was possible to determine the relative fluorescence value (arbitrary units of fluorescence brightness) in relation to the quantity of hydrogen peroxide produced at different incubation times. In the experiments with MB16 cells, once the cells had been marked with the DCFH-DA probe, they were incubated for 300 minutes with 2.5 μM of the azaresveratrol or JE2:2 compounds, 10 ng/ml of IL-18 (FIG. 4) then having been added.

TNF-alpha = test: ELISA of TNF-alpha in supernatant of MC-MB16-treated HSE cells; type: cell-based, mouse; conditions: 2.5 μM for 30 minutes before MC-MB16; 8 hours
Experimental: ELISA determination of the TNF-alpha concentration in the supernatant from MC-MB16-treated HSE cells. Primary cultured HSE cells were incubated in the presence or absence of 2.5 μM of the synthesized compounds (JEM2:2-01 and JEM2:1-02 see FIG. 8B) for 30 minutes, after which MB16-conditioned media were added. Eight (8) hours later, the supernatant from cultured endothelial cells were collected, filtered through 0.22 μm membranes and the concentration of TNF-alpha was then assayed using the ELISA test (R&D Systems).

[5] = Water solubility (statement); type: physicochemical
MB16 cells [6] = test: MB16 hepatic metastasis test after intrasplenic injection; type: in vivo, C57BL/6J mice; conditions: JE2:2 intraperitoneal 2.5 mg/kg, 1 hour prior and days 2, 3, 4, 8, 9, 10, 11; day 12; vs PBS; P<0.01
MB16 cells [7] = test: Hydrogen peroxide production from MB16 cells (DCFH-DA probe); type: cell-based, murine
Experimental: as §2

| Compound | Increase in H2O2-treated MB16 cell adhesion to immobilized VCAM-1 (in words) (MB16 cells [1]) | Increase in adhesion of MB16 cells to HSE activated by MC-MB16 / proadhesive response of HSE (in words) (HSE cells [2]) | Increase in endothelial secretion of PGE2 after VEGF (in words) (PGE2) | Increase in the number of MB16 cells by IL-18 (proliferation, in words) (MB16 cells [3]) | Endothelial (HSE) production of H2O2 (in words) (HSE cells [4]) | also measured |
| --- | --- | --- | --- | --- | --- | --- |
| Oc1ccc(O)c(-c2cc3c(O)cc(O)cc3[nH]2)c1 [YEF05H, 2-(2,5-Dihydroxyphenyl)-1H-indole-4,6-diol] | significantly (P<0.01) inhibited | significantly (P<0.01) reduced | – | – | – | – |
| COc1cc(OC)cc(-c2cc3c(OC)cc(OC)cc3[nH]2)c1 [YEF07, 4,6-Dimethoxy-2-(3,5-dimethoxyphenyl)-1H-indole] | significantly (P<0.01) inhibited | significantly (P<0.01) reduced | significantly inhibited | – | – | – |
| COC(=O)c1[nH]c(-c2cc(O)cc(O)c2)cc1-c1ccc(O)cc1 [JE2:1, 5-(3,5-Dihydroxyphenyl)-3-(4-hydroxyphenyl)-1H-pyrrole-2-methyl carboxylate] | significantly (P<0.01) inhibits | – | – | reduced said increase | inhibitory effect | – |
| COc1cc(OC)cc(-c2cc3c(OC)cc(OC)cc3n2C(=O)OC(C)(C)C)c1 [YEF05B, 4,6-Dimethoxy-2-(3,5-dimethoxyphenyl)-1H-indole-1-tert-butyl carboxylate] | significantly (P<0.01) inhibited | significantly (P<0.01) reduced | significantly inhibited | – | – | – |
| COc1ccc(OC)c(-c2cc3c(OC)cc(OC)cc3n2C(=O)OC(C)(C)C)c1 [YEF07B, 4,6-Dimethoxy-2-(2,5-dimethoxyphenyl)-1H-indole-1-tert-butyl carboxylate] | significantly (P<0.01) inhibited | significantly (P<0.01) reduced | – | – | – | – |
| COC(=O)c1[nH]c(-c2cc(OC)cc(OC)c2)cc1-c1cc(OC)cc(OC)c1 [JEM2:2-01, 3,5-bis(3,5-Dimethoxyphenyl)-1H-pyrrole-2-methyl carboxylate] | completely abrogated | significantly (P<0.01) reduced; also recorded: greater inhibition | – | – | – | Endothelial production of TNF-alpha induced by MC-MB16 (in words) (TNF-alpha): inhibits |
| COC(=O)c1[nH]c(-c2ccc(O)cc2)cc1-c1cc(O)cc(O)c1 [JE1:2, 3-(3,5-Dihydroxyphenyl)-5-(4-hydroxyphenyl)-1H-pyrrole-2-methyl carboxylate] | significantly (P<0.01) inhibits | – | – | reduced said increase | inhibitory effect | – |
| COC(=O)c1[nH]c(-c2cc(O)cc(O)c2)cc1-c1cc(O)cc(O)c1 [JE2:2, 3,5-bis(3,5-Dihydroxyphenyl)-1H-pyrrole-2-methyl carboxylate] | significantly (P<0.01) inhibits; also recorded: greatest inhibitory effect | significantly (P<0.01) reduced | significantly inhibited; also recorded: dose-response | reduced said increase; also recorded: most highly effective | inhibited | Water solubility (in words) [5]: highly water-soluble; Reduction of the mean density of hepatic metastasis (MB16 cells [6]): 87%; Reduction of the volume occupied by metastatic tissue (MB16 cells [6]): 90%; Increase of H2O2 production of MB16 cells in response to IL-18 (in words) (MB16 cells [7]; 2.5 μM prior to IL-18): completely abrogated; H2O2 production of MB16 cells in basal conditions (in words) (MB16 cells [7]; 2.5 μM, no IL-18): inhibited |
